This is an account of results in patent US6228382A, “Microbiocidal mixtures” (ETC C.V., priority 1996, dated 2001).

Series [1] can be described thus: Determination of the octanol/water partition coefficients (logPow) by HPLC, OECD guideline 117. To be noted: rp 18 hplc; HPLC method, RP 18 column, OECD 117; read-out: logPow (octanol/water partition coefficient). It counts as physicochemical.
A short description of series [2]: Determination of the relative leaching rate from house paint (watering with tap water, HPLC of methanol extracts). It counts as physicochemical. An excerpt: First, 128 parts by weight (PW) of water were initially charged. 11 PW of a 10% strength by weight solution of Calgon N (sodium triphosphate) were subsequently stirred into the water. Thereafter, 2 PW of Tylose MHB 6000 (from Hoechst AG), 3 PW of Additol XW 330 (from Hoechst AG), 4 PW of Agitan 260 (from Munzing-Chemie, Heilbronn), 226 PW of titanium dioxide (for example from Kronos 2065), 375 PW of MOWILITH® DM 771 (about 50%) (from. HOECHST), 84 PW of Omyacarb 5 (from Omya), 84 PW of Micro Mica W1, 38 PW of Micro Talc AT 1 and 20 PW of China Clay D were added and homogenized. 11 PW of white spirit, 8 PW of butyl diglycol acetate and 4 PW of MERGAL® K 9 N (Riedel de Haen) were stirred into the resulting mixture. The pH of the resulting house paint was 8.8.
The preservatives listed in Table 2 were homogeneously dispersed into the resulting house paint.
The resulting paint sample was in each case drawn out to a film of approximately 150 g/m^2 on paper, using a knife. The paint sample prepared in this manner was subsequently dried at a temperature of 30° C. for 72 hours.
Test samples having a diameter of 5.5 cm were punched out from the paint sample. To simulate leaching by rainwater, these paint-coated test samples were watered with tap water (46.7 1/day/m^2 of paint). Test samples were taken in each case after 24 hours and air-dried for 72 hours.
To determine the microbicide concentration, in each case one specimen was extracted in methanol. The methanol extracts were analysed by HPLC. […]
column: RP-phenyl (Hypersil 5 μ) mobile phase: gradient water/acetonitrile
UV-Detector: 220 nm and 200 nm
Since in each analysis, the substances listed in Table 3 were measured as the area under the HPLC signal, it is possible to relate the leaching rates directly to the known active compounds OITZ and Mctt.

In the case of `CCCCCCCCn1sccc1=O` [OITZ, 2-n-octylisothiazolin-3-one], the chromatographic logP in series [1] was determined as 2.89.

As to `CCCCCCCCCCCn1sccc1=O` [compound 11, 2-n-undecylisothiazolin-3-one], in series [1], the chromatographic logP amounted to 4.76.

On to `CCCCCCCCCCn1sccc1=O` [DITZ, 2-n-decyl-isothiazolin-3-one], for which the chromatographic logP in series [1] is 4.14.

Regarding `CCCCCCCCCn1sccc1=O` [NITZ, 2-n-nonylisothiazolin-3-one], the chromatographic logP in series [1] turned out to be 3.51.

With `CSc1nc(NC2CC2)nc(NC(C)(C)C)n1` [Mctt, 2-methylthio-4-cyclopropylamino-6-t-butylamino-1,3,5-triazine], the HPLC area in series [2] (0 h watering) is recorded as 955.2 arbitrary units; in series [2] (24 h watering) it was 787.1 arbitrary units; in series [2] (48 h watering) it was 800.2 arbitrary units; in series [2] (72 h watering) it was 677.6 arbitrary units; in series [2] (96 h watering) it was 547.4 arbitrary units. Further, the HPLC relative area was 1 in series [2] (0 h watering); 0.824 in series [2] (24 h watering); 0.837 in series [2] (48 h watering); 0.708 in series [2] (72 h watering); 0.572 in series [2] (96 h watering).

For `CCCCCCCCCCCCn1sccc1=O` [dodecyl-ITZ, 2-n-dodecylisothiazolin-3-one], the chromatographic logP in series [1] was found to be 5.36.
